One experiment concerns the target human TASK-1 (Homo sapiens, UniProt O14649). In words: Inhibition of recombinant TASK-1 in stably transfected CHO cells, KCl-induced depolarization, voltage-sensitive dye (B-2). On the set-up: expressed in transfected cells; host or cells: stably transfected CHO cells. The format is cell-based. The following applies: depolarization induced by 40 mM potassium chloride, some mean values from multiple determinations. The essentials: (§1)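 Stably transfected CHO cells loaded with a voltage-sensitive membrane potential dye. Depolarization was induced with 40 mM KCl, and compound inhibition of it was read by fluorescence. IC50 is the concentration blocking half of the KCl-induced depolarization; some values are means of multiple independent determinations.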

The next experiment deals with human TASK-3 (Homo sapiens, UniProt Q9NPC2). Briefly: Inhibition of recombinant TASK-3 in stably transfected CHO cells, KCl-induced depolarization, voltage-sensitive dye (B-2). On the set-up: expressed in transfected cells; host or cells: stably transfected CHO cells. The following applies: depolarization induced by 40 mM potassium chloride, some mean values from multiple determinations. The format is cell-based. The gist of the method:
as §1

This note sets out measurements from patent US20210024545A1, “SUBSTITUTED DIAZAHETERO-BICYCLIC COMPOUNDS AND THEIR USE” (Bayer Aktiengesellschaft, priority 2016, published 2021).

human TASK-1, sequence (O14649 whole entry): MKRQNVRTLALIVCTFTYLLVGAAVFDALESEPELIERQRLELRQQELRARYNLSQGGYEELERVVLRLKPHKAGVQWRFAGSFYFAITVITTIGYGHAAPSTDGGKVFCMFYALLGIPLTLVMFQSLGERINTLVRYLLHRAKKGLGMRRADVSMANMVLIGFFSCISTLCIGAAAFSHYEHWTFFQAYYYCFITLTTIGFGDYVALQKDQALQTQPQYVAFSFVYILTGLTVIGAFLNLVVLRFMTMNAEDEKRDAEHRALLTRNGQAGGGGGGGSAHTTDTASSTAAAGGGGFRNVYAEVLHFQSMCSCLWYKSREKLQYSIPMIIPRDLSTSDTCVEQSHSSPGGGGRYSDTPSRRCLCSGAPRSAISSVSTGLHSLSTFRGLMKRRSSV
human TASK-3, sequence (Q9NPC2 whole entry): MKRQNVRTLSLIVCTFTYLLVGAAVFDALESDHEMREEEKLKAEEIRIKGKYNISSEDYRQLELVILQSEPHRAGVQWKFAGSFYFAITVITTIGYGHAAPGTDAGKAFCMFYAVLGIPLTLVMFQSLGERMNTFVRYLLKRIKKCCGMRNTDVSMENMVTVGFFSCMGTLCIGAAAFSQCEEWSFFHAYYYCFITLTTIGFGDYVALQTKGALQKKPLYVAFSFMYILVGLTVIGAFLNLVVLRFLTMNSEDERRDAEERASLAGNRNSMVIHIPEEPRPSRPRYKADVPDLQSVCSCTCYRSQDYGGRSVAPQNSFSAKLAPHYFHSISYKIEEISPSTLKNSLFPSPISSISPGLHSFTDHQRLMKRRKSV

For the molecule `COc1ccc(Cl)c(C(=O)N2C3CCC2CN(Cc2c(-c4ccc(Br)cc4)nc4ccccn24)C3)n1` [Example 139, (3-{[2-(4-Bromophenyl)imidazo[1,2-a]pyridin-3-yl]methyl}-3,8-diazabicyclo[3.2.1]oct-8-yl)(3-chloro-6-methoxypyridin-2-yl)methanone], the values for the IC50 at human TASK-1 and on human TASK-3 were 290 nM and 18 nM, respectively.

Consider `COc1ccc(F)c(C(=O)N2C3COCC2CN(Cc2c(-c4ccc(Cl)cc4)nc4ccccn24)C3)n1` [Example 30, (7-{[2-(4-Chlorophenyl)imidazo[1,2a]pyridin-3-yl]methyl}-3-oxa-7,9-diazabicyclo[3.3.1]non-9-yl)(3-fluoro-6-methoxypyridin-2-yl)methanone], for which the IC50 at human TASK-1 stood at 770 nM; at human TASK-3, 21 nM.

For `O=C(c1cccc(Cl)c1)N1C2CC1CN(Cc1c(-c3ccc(Cl)cc3)nc3ccccn13)C2` [Example 114], the IC50 at human TASK-1 came out at 480 nM; on human TASK-3, 340 nM.

For `COc1ccc(F)cc1C(=O)N1CC2CCC1CN2Cc1c(-c2ccc(Cl)cc2)nc2ccccn12` (single isomer, unassigned) [Example 45], the IC50 on human TASK-1 was 340 nM; at human TASK-3, 13 nM.

`O=C(Nc1ccc(Cl)cc1)N1C2CCC1CN(Cc1c(-c3ccc(Cl)cc3)nc3ccccn13)C2` [Example 161, N-(4-Chlorophenyl)-3-{[2-(4-chlorophenyl)imidazo[1,2-a]pyridin-3-yl]methyl}-3,8-diazabicyclo[3.2.1]octane-8-carboxamide]: the results for the IC50 at human TASK-1 and on human TASK-3 were 7700 nM and 1000 nM, respectively.

As to `COc1ccc(C)c(C(=O)N2CC3CCC2CN3Cc2c(-c3ccc(C(C)C)cc3)nc3ccccn23)n1` (single isomer, unassigned) [Example 137], the IC50 on human TASK-1 came to 190 nM; at human TASK-3 it was 14 nM.

As for `O=C(c1cccc(OC(F)(F)F)n1)N1C2COCC1CN(Cc1c(-c3ccc(Cl)cn3)nc3ccccn13)C2` [Example 135, (7-{[2-(5-Chloropyridin-2-yl)imidazo[1,2-a]pyridin-3-yl]methyl}-3-oxa-7,9-diazabicyclo[3.3.1]non-9-yl)[6-(trifluoromethoxy)pyridin-2-yl]methanone], the IC50 at human TASK-1 was determined as 4100 nM; at human TASK-3, 160 nM.

Consider `CC(C)(C)OC(=O)N1CC2CCC1CN2Cc1c(-c2ccc(Cl)cc2)nc2ccccn12` (single isomer, unassigned) [Example 15, tert-Butyl 5-{[2-(4-chlorophenyl)imidazo[1,2-a]pyridin-3-yl]methyl}-2,5-diazabicyclo[2.2.2]octane-2-carboxylate], for which the 50% inhibitory concentration (IC50) is 397 nM on human TASK-1 and 82 nM at human TASK-3.

As to `O=C(c1ccccc1F)N1C2CCC1CN(Cc1c(-c3ccc(Cl)cn3)nc3ccccn13)C2` [Example 111], the IC50 is 110 nM on human TASK-1 and 25 nM at human TASK-3.

Turning to `CCCOC(=O)N1C2COCC1CN(Cc1c(-c3ccc(Cl)cc3)nc3ccccn13)C2` [Example 197, Propyl 7-{[2-(4-chlorophenyl)imidazo[1,2-a]pyridin-3-yl]methyl}-3-oxa-7,9-diazabicyclo[3.3.1]nonane-9-carboxylate], the values for the half-inhibitory concentration (IC50) on human TASK-1 and at human TASK-3 were 150 nM and 13 nM, respectively.

Consider `COc1ccc(Cl)c(C(=O)N2C3COCC2CN(Cc2c(-c4ccc(Cl)cc4)nc4ccccn24)C3)c1` [Example 74], for which the results for the IC50 on human TASK-1 and at human TASK-3 were 330 nM and 23 nM, respectively.

In the case of `COc1ccc(F)c(C(=O)N2C[C@@H]3CC[C@H]2CN3Cc2c(-c3ccc(Cl)cc3)nc3ccccn23)n1` (single isomer, unassigned; enantiomer 1) [Example 23], the IC50 on human TASK-1 is 790 nM; at human TASK-3 it was 170 nM.

`O=C(C1CCCC1)N1CC2CCC1CN2Cc1c(-c2ccc(Cl)cc2)nc2ccccn12` (single isomer, unassigned) [Example 37]: the IC50 turned out to be 350 nM on human TASK-1 and 63 nM at human TASK-3.

As to `Cn1ccnc1C(=O)N1CC2CCC1CN2Cc1c(-c2ccc(Cl)cc2)nc2ccccn12` (single isomer, unassigned) [Example 52], the results for the IC50 on human TASK-1 and on human TASK-3 were 170 nM and 10 nM, respectively.

For the molecule `CN(C)C(=O)N1C2CCC1CN(Cc1c(-c3ccc(Cl)cc3)nc3ccccn13)C2` [Example 180, 3-{[2-(4-Chlorophenyl)imidazo[1,2-a]pyridin-3-yl]methyl}-N,N-dimethyl-3,8-diazabicyclo[3.2.1]octane-8-carboxamide], the IC50 on human TASK-1 came to 220 nM; at human TASK-3 it was 23 nM.

With `CCN(C(=O)N1C2CCC1CN(Cc1c(-c3ccc(Cl)cc3)nc3ccccn13)C2)c1ccccc1` [Example 177, 3-{[2-(4-Chlorophenyl)imidazo[1,2-a]pyridin-3-yl]methyl}-N-ethyl-N-phenyl-3,8-diazabicyclo[3.2.1]octane-8-carboxamide], the IC50 was 4000 nM on human TASK-1 and 130 nM on human TASK-3.

As to `O=C(c1ccccc1F)N1C2CC1CN(Cc1c(-c3ccc(Cl)cc3)nc3ccccn13)C2` [Example 117], the IC50 at human TASK-1 is 635 nM; on human TASK-3 it was 520 nM.

For the molecule `COc1ccc(C)c(C(=O)N2CC3CCC2CN3Cc2c(-c3ccc(Cl)cc3)nc3ccccn23)n1` (single isomer, unassigned) [Example 138], the IC50 on human TASK-1 came out at 75 nM; on human TASK-3, 6.8 nM.

On to `CC(C)(C)OC(=O)N1C2COCC1CN(Cc1c(-c3ccc(Cl)cc3)nc3ccccn13)C2` [Example 4, tert-Butyl 7-{[2-(4-chlorophenyl)imidazo[1,2-a]pyridin-3-yl]methyl}-3-oxa-7,9-diazabicyclo[3.3.1]nonane-9-carboxylate], for which the IC50 is 560 nM on human TASK-1 and 43 nM on human TASK-3.

In the case of `COc1cccc(C(=O)N2CC3CCC2CN3Cc2c(-c3ccc(Cl)cc3)nc3ccccn23)c1` (single isomer, unassigned) [Example 39], the IC50 was determined as 640 nM on human TASK-1 and 370 nM at human TASK-3.

Consider `O=C(C1CCCCC1)N1CC2CCC(C1)N2Cc1c(-c2ccc(Cl)cc2)nc2ccccn12` [Example 93], for which the IC50 at human TASK-1 was 2300 nM; on human TASK-3, 510 nM.

For the molecule `CC(C)c1ccccc1C(=O)N1C2COCC1CN(Cc1c(-c3ccc(Cl)cc3)nc3ccccn13)C2` [Example 73], the IC50 at human TASK-1 is 160 nM; on human TASK-3, 9.6 nM.

In the case of `COc1ccc(F)cc1C(=O)N1CC2CCC(C1)N2Cc1c(-c2ccc(Cl)cc2)nc2ccccn12` [Example 89], the concentration for half-maximal inhibition (IC50) at human TASK-1 came to 827 nM; on human TASK-3, 220 nM.

For the molecule `CCOc1cccc(C(=O)N2CC3CCC2CN3Cc2c(-c3ccc(Cl)cc3)nc3ccccn23)c1` (single isomer, unassigned) [Example 54], the IC50 on human TASK-1 came out at 470 nM; at human TASK-3 it was 76 nM.

As for `COc1cccc(C(=O)N2CC3CCC(C2)N3Cc2c(-c3ccc(C(C)C)cc3)nc3ccccn23)n1` [Example 95], the IC50 at human TASK-1 is 1700 nM; on human TASK-3, 350 nM.

Regarding `O=C(c1cc(F)ccc1Cl)N1C2CC1CN(Cc1c(-c3ccc(Cl)cc3)nc3ccccn13)C2` [Example 119], the IC50 on human TASK-1 was 1100 nM; on human TASK-3, 1500 nM.

Take `COc1ccc(Cl)c(C(=O)N2C[C@@H]3CC[C@H]2CN3Cc2c(-c3ccc(Cl)cc3)nc3ccccn23)n1` (single isomer, unassigned; enantiomer 1) [Example 22]: the IC50 came out at 170 nM at human TASK-1 and 13 nM at human TASK-3.

`CC(C)N(C)C(=O)N1C2CCC1CN(Cc1c(-c3ccc(Cl)cc3)nc3ccccn13)C2` [Example 178, 3-{[2-(4-Chlorophenyl)imidazo[1,2-a]pyridin-3-yl]methyl}-N-isopropyl-N-methyl-3,8-diazabicyclo[3.2.1]octane-8-carboxamide]: the IC50 at human TASK-1 was found to be 290 nM; on human TASK-3, 17 nM.

In the case of `O=C(C1CCC1)N1C2CCC1CN(Cc1c(-c3ccc(Cl)cc3)nc3ccccn13)C2` [Example 101], the IC50 amounted to 370 nM on human TASK-1 and 7.2 nM on human TASK-3.

On to `CCc1cccc(C)c1NC(=O)N1C2CCC1CN(Cc1c(-c3ccc(Cl)cc3)nc3ccccn13)C2` [Example 162, 3-{[2-(4-Chlorophenyl)imidazo[1,2-a]pyridin-3-yl]methyl}-N-(2-ethyl-6-methylphenyl)-3,8-diazabicyclo[3.2.1]octane-8-carboxamide], for which the values for the IC50 at human TASK-1 and on human TASK-3 were 53 nM and 13 nM, respectively.

On to `COc1ccc(Cl)c(C(=O)N2CC3CCC2CN3Cc2c(-c3ccc(Cl)cn3)nc3ccccn23)n1` (single isomer, unassigned; enantiomer 1) [Example 25, (3-Chloro-6-methoxypyridin-2-yl)(5-{[2-(5-chloropyridin-2-yl)imidaz[1,2-a]pyridin-3-yl]methyl}-2,5-diazabicyclo[2.2.2]oct-2-yl)methanone (enantiomer 1)], for which the values for the IC50 on human TASK-1 and at human TASK-3 were 120 nM and 5.6 nM, respectively.

As to `CC(C)N(C(=O)N1C2CCC1CN(Cc1c(-c3ccc(Cl)cc3)nc3ccccn13)C2)C(C)C` [Example 174, 3-{[2-(4-Chlorophenyl)imidazo[1,2-a]pyridin-3-yl]methyl}-N,N-diisopropyl-3,8-diazabicyclo[3.2.1]octane-8-carboxamide], the IC50 at human TASK-1 was determined as 91 nM; on human TASK-3, 13 nM.

For the molecule `O=C(C1CCCC1)N1CC2CCC1CN2Cc1c(-c2ccc(Cl)cc2)nc2ccccn12` (single isomer, unassigned) [Example 38], the IC50 was determined as 790 nM on human TASK-1 and 380 nM on human TASK-3.

On to `CC(C)c1ccc(-c2nc3ccccn3c2CN2CC3CCC(C2)N3C(=O)OC(C)(C)C)cc1` [Example 12], for which the figures for the IC50 at human TASK-1 and on human TASK-3 were 3000 nM and 8300 nM, respectively.

For `CCN(C(=O)N1C2COCC1CN(Cc1c(-c3ccc(Cl)cc3)nc3ccccn13)C2)C1CCCCC1` [Example 191, 7-{[2-(4-Chlorophenyl)imidazo[1,2-a]pyridin-3-yl]methyl}-N-cyclohexyl-N-ethyl-3-oxa-7,9-diazabicyclo[3.3.1]nonane-9-carboxamide], the IC50 at human TASK-1 worked out at 9500 nM; at human TASK-3 it was 190 nM.
